The values that follow come from patent US9340580B2, “Peptide with multiple epitopes” (priority 2007, dated 2016).

Molecules are shown by their SMILES. Where a SMILES comes first, the peptide text is derived from it.

This series is described as follows: solubility pre-screen in an aqueous, acidic milieu. Further: test concentration or dose not given here. It is filed as physicochemical.
Regarding `CC(C)C[C@H](NC(=O)[C@H](CC(=O)O)NC(=O)[C@H](CC(C)C)NC(=O)[C@H](CCC(=O)O)NC(=O)[C@H](CO)NC(=O)[C@@H]1CCCN1C(=O)[C@@H](NC(=O)[C@H](CC(N)=O)NC(=O)[C@@H](NC(=O)[C@H](CO)NC(=O)[C@@H](N)CC(N)=O)C(C)C)C(C)C)C(=O)N[C@@H](CCCNC(=N)N)C(=O)N[C@@H](CO)C(=O)N[C@@H](CC(C)C)C(=O)N[C@@H](CCCNC(=N)N)C(=O)N[C@H](C(=O)O)[C@@H](C)O` [HDM17] (H-NSVNVPSELDLRSLRT-OH), the Solubility test entry is “YES”. The entry for `CC(C)C[C@H](NC(=O)[C@H](CC(=O)O)NC(=O)[C@H](CC(C)C)NC(=O)[C@H](CO)NC(=O)[C@H](CCC(N)=O)NC(=O)[C@H](CC(N)=O)NC(=O)[C@@H](N)CCCNC(=N)N)C(=O)N[C@@H](C)C(=O)N[C@@H](CCC(=O)O)C(=O)N[C@@H](CCC(N)=O)C(=O)N[C@@H](CCC(=O)O)C(=O)N[C@@H](CC(C)C)C(=O)N[C@H](C(=O)N[C@@H](CC(=O)O)C(=O)N[C@@H](CS)C(=O)N[C@@H](C)C(=O)N[C@@H](CO)C(=O)N[C@@H](CCC(N)=O)C(=O)N[C@@H](Cc1c[nH]cn1)C(=O)O)C(C)C` [HDM03C] (H-RNQSLDLAEQELVDCASQH-OH; N-terminus and C-terminus assumed) is “YES”; for `CSCC[C@H](NC(=O)[C@@H]1CCCN1C(=O)[C@H](CC(=O)O)NC(=O)[C@H](Cc1ccccc1)NC(=O)[C@@H](NC(=O)[C@@H](N)CCC(=O)O)[C@@H](C)O)C(=O)N[C@@H](CCCCN)C(=O)N[C@H](C(=O)N1CCC[C@H]1C(=O)N[C@@H](CC(=O)O)C(=O)N[C@@H](Cc1c[nH]cn1)C(=O)N[C@@H](CO)C(=O)N[C@@H](CC(=O)O)C(=O)N[C@@H](CCCCN)C(=O)O)C(C)C` [HDM29A] (H-ETFDPMKVPDHSDK-OH) it is “YES”. Regarding `CC[C@H](C)[C@H](N)C(=O)NCC(=O)N[C@H](C(=O)N[C@@H](CCCCN)C(=O)N[C@@H](CC(=O)O)C(=O)N[C@@H](CC(C)C)C(=O)N[C@@H](CC(=O)O)C(=O)N[C@@H](C)C(=O)N[C@@H](Cc1ccccc1)C(=O)N[C@@H](CCCNC(=N)N)C(=O)N[C@@H](Cc1c[nH]cn1)C(=O)N[C@@H](Cc1ccc(O)cc1)C(=O)N[C@@H](CC(=O)O)C(=O)O)[C@@H](C)CC` [HDM11] (H-IGIKDLDAFRHYD-OH), the Solubility test entry is listed as “YES”. For the compound `CC(C)[C@H](NC(=O)CNC(=O)[C@H](CC(=O)O)NC(=O)[C@H](CCC(=O)O)NC(=O)[C@H](CO)NC(=O)[C@H](CCCCN)NC(=O)[C@@H](NC(=O)[C@H](CC(N)=O)NC(=O)[C@H](C)N)C(C)C)C(=O)N[C@H](C(=O)N[C@@H](CCCCN)C(=O)N[C@@H](C)C(=O)N[C@@H](Cc1c[nH]cn1)C(=O)O)C(C)C` [HDM37] (H-ANVKSEDGVVKAH-OH), the Solubility test entry is given as “YES”. For the compound `CSCC[C@H](NC(=O)[C@@H]1CCCN1C(=O)[C@H](CC(=O)O)NC(=O)[C@H](Cc1ccccc1)NC(=O)[C@@H](NC(=O)[C@@H](N)CCC(=O)O)[C@@H](C)O)C(=O)N[C@@H](CCCCN)C(=O)N[C@H](C(=O)N1CCC[C@H]1C(=O)N[C@@H](CC(=O)O)C(=O)N[C@@H](Cc1c[nH]cn1)C(=O)N[C@@H](CO)C(=O)N[C@@H](CC(=O)O)C(=O)O)C(C)C` [HDM29] (H-ETFDPMKVPDHSD-OH), the Solubility test entry is recorded as “YES”.

As to `CC(C)C[C@H](NC(=O)[C@H](CC(=O)O)NC(=O)[C@@H](N)CCCCN)C(=O)N[C@@H](CC(=O)O)C(=O)N[C@@H](C)C(=O)N[C@@H](Cc1ccccc1)C(=O)N[C@@H](CCCNC(=N)N)C(=O)N[C@@H](Cc1c[nH]cn1)C(=O)N[C@@H](Cc1ccc(O)cc1)C(=O)N[C@@H](CC(=O)O)C(=O)NCC(=O)N[C@@H](CCCNC(=N)N)C(=O)N[C@H](C(=O)O)[C@@H](C)O` [HDM12] (H-KDLDAFRHYDGRT-OH), the Solubility test entry is listed as “YES”. Regarding `CSCC[C@H](NC(=O)[C@H](CO)NC(=O)[C@@H](NC(=O)[C@@H](NC(=O)[C@H](CC(=O)O)NC(=O)[C@@H](N)CC(=O)O)C(C)C)C(C)C)C(=O)N[C@@H](CCC(=O)O)C(=O)N[C@@H](Cc1ccc(O)cc1)C(=O)N[C@@H](CC(=O)O)C(=O)N[C@@H](CC(C)C)C(=O)N[C@@H](C)C(=O)N[C@@H](Cc1ccc(O)cc1)C(=O)N[C@@H](CCCCN)C(=O)O` [HDM39] (H-DDVVSMEYDLAYK-OH; N-terminus and C-terminus assumed), the Solubility test entry is recorded as “NO*”. Then `CC(C)[C@H](NC(=O)[C@H](CCCNC(=N)N)NC(=O)[C@@H](N)CCCCN)C(=O)NCC(=O)N[C@@H](CC(=O)O)C(=O)N[C@@H](C)C(=O)N[C@@H](CC(N)=O)C(=O)N[C@H](C(=O)N[C@@H](CCCCN)C(=O)N[C@@H](CO)C(=O)N[C@@H](CCC(=O)O)C(=O)N[C@@H](CC(=O)O)C(=O)NCC(=O)O)C(C)C` [HDM36] (H-KRVGDANVKSEDG-OH), with “YES”. Then `CC(C)[C@H](NC(=O)[C@H](Cc1ccc(O)cc1)NC(=O)[C@@H](N)CCCNC(=N)N)C(=O)N[C@@H](C)C(=O)N[C@@H](CCCNC(=N)N)C(=O)N[C@@H](CCC(=O)O)C(=O)N[C@@H](CCC(N)=O)C(=O)N[C@@H](CO)C(=O)N[C@@H](CS)C(=O)N[C@@H](CCCNC(=N)N)C(=O)N[C@@H](CCCNC(=N)N)C(=O)N1CCC[C@H]1C(=O)N[C@@H](CC(N)=O)C(=O)O` [HDM06] (H-RYVAREQSCRRPN-OH; N-terminus and C-terminus assumed), with “YES”; and `CC[C@H](C)[C@H](N)C(=O)N[C@@H](CC(=O)O)C(=O)N[C@@H](CC(C)C)C(=O)N[C@@H](CCCNC(=N)N)C(=O)N[C@@H](CCC(N)=O)C(=O)N[C@@H](CCSC)C(=O)N[C@@H](CCCNC(=N)N)C(=O)N[C@H](C(=O)N[C@H](C(=O)N[C@H](C(=O)N1CCC[C@H]1C(=O)N[C@H](C(=O)N[C@@H](CCCNC(=N)N)C(=O)O)[C@@H](C)CC)[C@@H](C)O)C(C)C)[C@@H](C)O` [HDM01] (H-IDLRQMRTVTPIR-OH; N-terminus and C-terminus assumed), with “YES”; and `CC[C@H](C)[C@H](NC(=O)[C@@H](NC(=O)[C@@H](N)CS)[C@@H](C)CC)C(=O)N[C@@H](Cc1c[nH]cn1)C(=O)N[C@@H](CCCNC(=N)N)C(=O)NCC(=O)N[C@@H](CCCCN)C(=O)N1CCC[C@H]1C(=O)N[C@@H](Cc1ccccc1)C(=O)N[C@@H](CCC(N)=O)C(=O)N[C@@H](CC(C)C)C(=O)N[C@@H](CCC(=O)O)C(=O)N[C@@H](C)C(=O)O` [HDM20] (H-CIIHRGKPFQLEA-OH; N-terminus and C-terminus assumed), with “YES”. Then `CC[C@H](C)[C@H](NC(=O)[C@@H]1CCCN1C(=O)[C@@H](NC(=O)[C@@H](NC(=O)[C@@H](NC(=O)[C@@H](N)CCCNC(=N)N)[C@@H](C)O)C(C)C)[C@@H](C)O)C(=O)N[C@@H](CCCNC(=N)N)C(=O)N[C@@H](CCSC)C(=O)N[C@@H](CCC(N)=O)C(=O)NCC(=O)NCC(=O)N[C@@H](CS)C(=O)NCC(=O)O` [HDM02] (H-RTVTPIRMQGGCG-OH; N-terminus and C-terminus assumed), with “YES”.

Take `CC[C@H](C)[C@H](NC(=O)[C@H](CCC(=O)O)NC(=O)[C@H](Cc1c[nH]cn1)NC(=O)[C@H](CC(N)=O)NC(=O)[C@H](C)NC(=O)[C@H](CS)NC(=O)[C@H](CC(=O)O)NC(=O)[C@H](CCCCN)NC(=O)[C@@H](NC(=O)[C@H](CC(=O)O)NC(=O)[C@@H](NC(=O)[C@H](CCC(N)=O)NC(=O)[C@@H](N)CC(=O)O)C(C)C)C(C)C)C(=O)N[C@@H](CCCCN)C(=O)N[C@@H](CCCCN)C(=O)O` [HDM19] (H-DQVDVKDCANHEIKK-OH): the Solubility test result is recorded as “YES”. Regarding `CC[C@H](C)[C@H](NC(=O)[C@H](CCCCN)NC(=O)[C@@H](N)CC(N)=O)C(=O)N[C@@H](CCCNC(=N)N)C(=O)N[C@@H](CCC(=O)O)C(=O)N[C@@H](C)C(=O)N[C@@H](CC(C)C)C(=O)N[C@@H](C)C(=O)N[C@@H](CCC(N)=O)C(=O)N[C@H](C(=O)N[C@@H](Cc1c[nH]cn1)C(=O)N[C@@H](CO)C(=O)N[C@@H](C)C(=O)O)[C@@H](C)O` [HDM08] (H-NKIREALAQTHSA-OH), the Solubility test entry was “YES”. Take `CSCC[C@H](NC(=O)[C@H](CCC(N)=O)NC(=O)[C@H](CCCCN)NC(=O)[C@H](CC(C)C)NC(=O)CNC(=O)[C@@H](N)CCCNC(=N)N)C(=O)N[C@@H](CCCCN)C(=O)N[C@@H](CCCNC(=N)N)C(=O)N[C@H](C(=O)NCC(=O)N[C@@H](CC(=O)O)C(=O)N[C@@H](C)C(=O)N[C@@H](CC(N)=O)C(=O)O)C(C)C` [HDM35] (H-RGLKQMKRVGDAN-OH; N-terminus and C-terminus assumed): the Solubility test entry is recorded as “YES”. Consider `CC[C@H](C)[C@H](NC(=O)[C@H](Cc1ccc(O)cc1)NC(=O)[C@@H](N)CCC(=O)O)C(=O)N[C@@H](CCC(N)=O)C(=O)N[C@@H](Cc1c[nH]cn1)C(=O)N[C@@H](CC(N)=O)C(=O)NCC(=O)N[C@H](C(=O)N[C@H](C(=O)N[C@@H](CCC(N)=O)C(=O)N[C@@H](CCC(=O)O)C(=O)N[C@@H](CO)C(=O)N[C@@H](Cc1ccc(O)cc1)C(=O)O)C(C)C)C(C)C` [HDM05] (H-EYIQHNGVVQESY-OH), for which the Solubility test entry is recorded as “YES”. Turning to `CC[C@H](C)[C@H](NC(=O)[C@H](CC(N)=O)NC(=O)[C@H](CCCNC(=N)N)NC(=O)[C@H](CCSC)NC(=O)[C@H](CC(=O)O)NC(=O)[C@@H](N)CC(C)C)C(=O)N[C@@H](CCC(N)=O)C(=O)N[C@H](C(=O)N[C@@H](CCCNC(=N)N)C(=O)NCC(=O)N[C@@H](CC(C)C)C(=O)N[C@@H](CCCCN)C(=O)N[C@@H](CCC(N)=O)C(=O)O)C(C)C` [HDM33] (H-LDMRNIQVRGLKQ-OH; N-terminus and C-terminus assumed), the Solubility test entry is “YES”. Consider `CC[C@H](C)[C@H](NC(=O)[C@H](CCCCN)NC(=O)[C@H](CC(N)=O)NC(=O)[C@@H](NC(=O)[C@H](CC(N)=O)NC(=O)[C@@H]1CCCN1)C(C)C)C(=O)N[C@@H](CCCNC(=N)N)C(=O)N[C@@H](CCC(=O)O)C(=O)N[C@@H](C)C(=O)N[C@@H](CC(C)C)C(=O)N[C@@H](C)C(=O)N[C@@H](CCC(N)=O)C(=O)N[C@H](C(=O)O)[C@@H](C)O` [HDM07] (H-PNVNKIREALAQT-OH), for which the Solubility test result is on record as “YES”.

Take `CSCC[C@H](NC(=O)[C@H](CCC(=O)O)NC(=O)[C@H](C)NC(=O)[C@H](CCCNC(=N)N)NC(=O)[C@@H](NC(=O)[C@@H](NC(=O)[C@@H](N)CC(=O)O)[C@@H](C)O)C(C)C)C(=O)N[C@H](C(=O)N[C@@H](CCCCN)C(=O)N[C@H](C(=O)N[C@@H](CC(C)C)C(=O)N[C@@H](C)C(=O)N1CCC[C@H]1C(=O)O)C(C)C)[C@@H](C)O` [HDM49] (H-DTVRAEMTKVLAP-OH; N-terminus and C-terminus assumed): the Solubility test entry is “YES”.
